This passage reports outcome results from PubChem BioAssay AID2202554 (NIEHS Division of Translational Toxicology (DTT)).

Results filed as inconclusive are left out. The source made the active and inactive calls. No rule for the calls is given here.

For the data set, the system named is S. typhimurium/E. coli reverse mutation, colony counts. Briefly: Bacterial reverse mutation test (aka Ames test) summary data. The method in brief: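 Revertant colony counts on plates, compared with untreated controls, after about two days of growth. Exposure with or without liver S9 (rat/hamster/mouse), dose range per strain, 20-min 37° C preincubation or direct plate incorporation. Strains: his⁻ Salmonella, trp⁻ E. coli WP2 uvrA pKM101.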

`Clc1c(Cl)c(Cl)c2c(c1Cl)Oc1c(Cl)c(Cl)c(Cl)c(Cl)c1O2`: the outcome was “inactive; negative”.

Turning to `COC(F)(F)C(Cl)Cl`, the outcome was “inactive; negative”.

As for `O=S(=O)(c1ccc(Cl)cc1)c1ccc(Cl)cc1`, the outcome is “inactive; negative”.

Turning to `O=C1c2c(Br)c(Br)c(Br)c(Br)c2C(=O)N1CCN1C(=O)c2c(Br)c(Br)c(Br)c(Br)c2C1=O`, the outcome was “inactive; negative”.

On to `ClCBr`, for which the outcome is “active; positive”.

Regarding `CC1OC(C)OC(C)O1` (stereo unspecified), the outcome is “active; positive”.

As for `CN(C)c1ccc(C(=N)c2ccc(N(C)C)cc2)cc1`, the outcome was “active; positive”.

On to `ClCc1ccccc1`, for which the outcome was “active; weakly positive”.

Regarding `CN(C)C(=S)[S-].CN(C)C(=S)[S-].[Pb+2]`, the outcome was “active; positive”.

In the case of `Cc1c(N(C)C)c(=O)n(-c2ccccc2)n1C`, the outcome was “active; weakly positive”.

As for `OC(O)C(Cl)(Cl)Cl`, the outcome was “active; positive”.

In the case of `ClC(Cl)(Cl)Cl`, the outcome is “inactive; negative”.

For the molecule `CCOS(C)(=O)=O`, the outcome was “active; positive”.

With `CC(C)(O)C#N`, the outcome is “inactive; negative”.

With `c1ccc(O[Si](Oc2ccccc2)(Oc2ccccc2)Oc2ccccc2)cc1`, the outcome was “inactive; negative”.

Turning to `Nc1cccc2c(N)cccc12`, the outcome was “active; positive”.

With `NC(=O)c1cccc([N+](=O)[O-])c1`, the outcome was “active; positive”.

With `COCC1CO1` (stereo unspecified), the outcome is “active; positive”.

In the case of `CN(C)c1ccc2nc3ccc(=[N+](C)C)cc-3sc2c1`, the outcome is “active; positive”.

Consider `Sc1ccccc1`, for which the outcome is “inactive; negative”.

Turning to `N#CSCSc1nc2ccccc2s1`, the outcome is “active; positive”.

As to `ClC1(Cl)C2(Cl)C3(Cl)C4(Cl)C(Cl)(Cl)C5(Cl)C3(Cl)C1(Cl)C5(Cl)C24Cl` (stereo unspecified), the outcome is “inactive; negative”.

Consider `NCCC(=O)O`, for which the outcome was “inactive; negative”.

`S=[Se]`: the outcome was “active; positive”.

Turning to `O=C(O)C=Cc1ccc(C=CC(=O)O)cc1`, the outcome is “inactive; negative”.

Take `CC(C)(C)c1ccc(O)c(O)c1`: the outcome was “inactive; negative”.

Take `Nc1cccc(O)c1`: the outcome is “active; positive”.

With `C1COCCO1`, the outcome was “inactive; negative”.

`CCOCCOC(C)=O`: the outcome was “active; positive”.

With `ClC(Cl)(Cl)C(Cl)(Cl)Cl`, the outcome was “inactive; negative”.

`O=Cc1ccc(Cl)c(Cl)c1`: the outcome is “inactive; negative”.

Turning to `Cn1c(-c2ccccc2)c(N=Nc2scc[n+]2C)c2ccccc21`, the outcome was “active; positive”.

As for `O=c1[nH][nH]c(=O)c2cc([N+](=O)[O-])ccc12`, the outcome was “active; positive”.

Consider `Cc1cc(O)ccc1Cl`, for which the outcome was “inactive; negative”.

On to `Nc1ccc(-c2ccc(N)c(O)c2)cc1O`, for which the outcome was “active; positive”.

With `CCC(CO)(CO)[N+](=O)[O-]`, the outcome was “inactive; negative”.

As for `C(=NC1CCCCC1)=NC1CCCCC1`, the outcome was “inactive; negative”.

As for `O[C@H]([C@H](O)[C@@H](O)CBr)[C@H](O)CBr`, the outcome is “active; positive”.

On to `CC(C)(c1cc(Br)c(OCC(Br)CBr)c(Br)c1)c1cc(Br)c(OCC(Br)CBr)c(Br)c1` (stereo unspecified), for which the outcome was “inactive; negative”.

Take `CC(C)(C)OOC(C)(C)C`: the outcome is “inactive; negative”.

Consider `O=C1O[C@H]([C@H](O)CO)C(O)=C1O`, for which the outcome was “active; weakly positive”.

As to `CCCCOC(=O)c1ccc(O)cc1`, the outcome is “inactive; negative”.

`NC(N)=NC(=O)c1nc(Cl)c(N)nc1N`: the outcome was “active; positive”.

With `O=C(O)c1c(Cl)cccc1Cl`, the outcome is “inactive; negative”.

As for `Cc1c(O)cccc1C(=O)N[C@@H](CSc1ccccc1)[C@H](O)CN1C[C@H]2CCCC[C@H]2C[C@H]1C(=O)NC(C)(C)C`, the outcome is “inactive; negative”.

With `CCCCOC(=O)c1ccc(N)cc1`, the outcome was “inactive; negative”.

Consider `CCCCC(CC)CO` (stereo unspecified), for which the outcome was “inactive; negative”.

`N#CCCC(Br)(C#N)CBr` (stereo unspecified): the outcome was “inactive; negative”.

For `NC(=O)NC(N)=O`, the outcome is “active; positive”.

`CCCCC(CC)COP(OCC(CC)CCCC)OCC(CC)CCCC` (stereo unspecified): the outcome is “inactive; negative”.

Regarding `CC(=O)OC1CC(C)OC(C)O1` (stereo unspecified), the outcome was “active; positive”.

As to `O=C(NCO)NCO`, the outcome is “active; positive”.

Turning to `CC(=O)OO`, the outcome is “inactive; negative”.

Turning to `CO/N=C(\C(=O)N[C@@H]1C(=O)N2C(C(=O)O)=C(COC(N)=O)CS[C@H]12)c1ccco1`, the outcome is “inactive; negative”.

`COC(=O)c1ccccc1N`: the outcome was “inactive; negative”.

With `O=C1N(CO)C(O)C(O)N1CO` (stereo unspecified), the outcome is “active; positive”.

Turning to `Cc1c[nH]c(=S)[nH]c1=O`, the outcome was “inactive; negative”.

In the case of `CC(O)CNCC(C)O` (stereo unspecified), the outcome is “inactive; negative”.

Regarding `O=C(O)C(Cl)Br` (stereo unspecified), the outcome is “active; positive”.

On to `C=C(C)[C@H]1CC=C(C)C(=O)C1`, for which the outcome was “inactive; negative”.

Consider `CCCCCON=O`, for which the outcome is “active; positive”.

Consider `OCCN1CC1`, for which the outcome was “active; positive”.

On to `NS(=O)(=O)c1cc2c(cc1Cl)NCNS2(=O)=O`, for which the outcome was “inactive; negative”.

As to `C[CH2][Hg][S]c1ccccc1C(=O)O`, the outcome was “inactive; negative”.

As to `Clc1c(Cl)c(Cl)c2ccccc2c1Cl`, the outcome was “inactive; negative”.

As to `Cc1c(N)cccc1N`, the outcome is “active; positive”.

Regarding `Cc1ccc(N)c([N+](=O)[O-])c1`, the outcome is “active; positive”.

With `COc1ccc(OC)cc1`, the outcome is “inactive; negative”.

`C=CC(=O)OCCOCCOCCOCCOC(=O)C=C`: the outcome was “inactive; negative”.

Consider `ClCC(Br)CBr` (stereo unspecified), for which the outcome was “active; positive”.

As to `C=C[C@H]1CN2CC[C@H]1C[C@@H]2[C@@H](O)c1ccnc2ccc(OC)cc12`, the outcome is “inactive; negative”.

As to `CCOC=O`, the outcome is “inactive; negative”.

For the molecule `CC(=O)Nc1cccc(C)c1`, the outcome was “inactive; negative”.

Consider `CN(C(=O)CN(CCO)CC(=O)N(C)C(C)(C)Cc1ccccc1)C(C)(C)Cc1ccccc1`, for which the outcome is “inactive; negative”.

On to `N[C@@H](Cc1c[nH]c2ccccc12)C(=O)O`, for which the outcome is “inactive; negative”.

As for `CNC[C@H](O)c1ccc(O)c(O)c1`, the outcome was “active; weakly positive”.

Take `CC1CCCC1`: the outcome is “inactive; negative”.

With `Cc1cccc(O)c1`, the outcome is “inactive; negative”.

With `S=c1[nH][nH]c(=S)s1`, the outcome is “inactive; negative”.

In the case of `Cl[C@@H]1C2(Cl)C3C4[C@@H]5O[C@@H]5[C@H]5C3[C@@](Cl)(C2(Cl)Cl)[C@]1(Cl)[C@@H]45` (stereo partly specified), the outcome was “active; positive”.

Take `O=C1c2ccccc2-c2ccc3c4ccc5c6c(ccc(c7ccc1c2c73)c64)C(=O)c1ccccc1-5`: the outcome was “active; weakly positive”.

With `[CH3][Sn]([CH3])([F])[F]`, the outcome is “inactive; negative”.

On to `ClC(Cl)(Cl)C1CO1` (stereo unspecified), for which the outcome was “active; positive”.

Turning to `CC(C)NCC(O)c1ccc(O)c(O)c1` (stereo unspecified), the outcome is “active; weakly positive”.

Regarding `c1ccc(SCCSc2ccccc2)cc1`, the outcome was “inactive; negative”.

As for `c1ccc(N(c2ccccc2)c2ccccc2)cc1`, the outcome was “inactive; negative”.

For the molecule `CCN(C(=O)N(CC)c1ccccc1)c1ccccc1`, the outcome is “inactive; negative”.

For the molecule `FC(F)(F)C(F)(F)I`, the outcome was “active; positive”.

`CCCCOC(=O)c1ccccc1C(=O)OCc1ccccc1`: the outcome was “inactive; negative”.

Consider `Oc1c(Cl)cccc1Cl`, for which the outcome was “inactive; negative”.

Turning to `CS(=O)(=O)c1ccc(C(=O)C2C(=O)CCCC2=O)c([N+](=O)[O-])c1`, the outcome is “active; positive”.

`CC(C)C#N`: the outcome is “inactive; negative”.

On to `c1ccc2c(c1)CCCC2`, for which the outcome is “inactive; negative”.

In the case of `CCCCCCCCCCCCOCC1CO1` (stereo unspecified), the outcome was “inactive; negative”.

For `C=CC1CO1` (stereo unspecified), the outcome was “active; positive”.

As for `Cc1ccccc1C#N`, the outcome was “inactive; negative”.

In the case of `O=C1c2c(O)cccc2Cc2cccc(O)c21`, the outcome was “inactive; negative”.

Regarding `CN(C)c1cccc(O)c1`, the outcome is “active; positive”.

As for `S=C(NC1CCCCC1)NC1CCCCC1`, the outcome is “inactive; negative”.

Regarding `NC(=O)Nc1nc2ccccc2[nH]1`, the outcome was “active; positive”.

With `C=CCNC(N)=O`, the outcome was “active; positive”.

With `NCCNc1cccc2ccccc12`, the outcome was “active; positive”.

On to `O=C(O)C(F)(F)C(F)(F)C(F)(F)C(F)(F)C(F)(F)F`, for which the outcome was “inactive; negative”.

Take `CCCCC`: the outcome was “inactive; negative”.

`Oc1cc(Cl)c(Cl)c(Cl)c1Cl`: the outcome is “inactive; negative”.

For the molecule `Cl/C=C/Cl`, the outcome is “inactive; negative”.

On to `O=C(O)CNCP(=O)(O)O`, for which the outcome was “inactive; negative”.

Consider `CNc1ccc(N(CCO)CCO)cc1[N+](=O)[O-]`, for which the outcome was “active; positive”.

With `ClC1=C(Cl)C2(Cl)C3C(Cl)C=CC3C1(Cl)C2(Cl)Cl` (stereo unspecified), the outcome was “inactive; negative”.

`Cc1c(C)c2c(c(C)c1OC(=O)CCC(=O)O)CC[C@@](C)(CCC[C@H](C)CCC[C@H](C)CCCC(C)C)O2`: the outcome was “inactive; negative”.

Consider `CC(O)CCl` (stereo unspecified), for which the outcome was “active; positive”.
